# Laboratory results taken from ChEMBL document CHEMBL3872282, “Dithiocarbamates effectively inhibit the β-carbonic anhydrase from the dandruff-producing fungus Malassezia globosa” (Bioorg Med Chem, 2017).
# Experiment: Inhibition of Malassezia globosa beta-carbonic anhydrase preincubated for 15 mins prior to testing by phenol red-based stopped-flow CO2 hydration assay
row,Compound,Ki
1,O=C(O)C1CCCCN1C(=S)S (configuration not stated),2400 nM
2,S=C(S)N[C@H]1CN2CCC1CC2,490 nM
3,S=C(S)N[C@@H]1CN2CCC1CC2,724 nM
4,O=C(O)[C@H]1CCCN(C(=S)S)C1,929 nM
5,O=C(O)C1COCCN1C(=S)S (configuration not stated),4740 nM
6,S=C(S)NCCc1ccccc1,4620 nM
7,NS(=O)(=O)c1ccc(CCNC(=S)S)cc1,914 nM
8,OCCCCNC(=S)S,6240 nM
9,OCCCNC(=S)S,3190 nM
10,S=C(S)N1CCCCC1,773 nM
11,CC(=O)NC1CCCN(C(=S)S)C1 (configuration not stated),885 nM
12,CN(C)CCNC(=S)S,2980 nM
13,S=C(S)NC1CN2CCC1CC2 (racemic),643 nM
14,CC(=O)Nc1nnc(S(N)(=O)=O)s1 [ACETAZOLAMIDE],74000 nM

# Other lines, results leading:
row,Ki,Compound
1,383 nM,OCCCCCNC(=S)S
2,678 nM,OC1CCCN(C(=S)S)C1 (configuration not stated)
3,718 nM,O=C(O)C1CCCN(C(=S)S)C1 (configuration not stated)
4,577 nM,O=C(O)[C@@H]1CCCN(C(=S)S)C1
5,556 nM,O=C(O)C1CCN(C(=S)S)CC1
6,660 nM,CC1COCCN1C(=S)S (configuration not stated)
7,801 nM,O=C(CN1CCN(C(=S)S)CC1)NC1CCCCC1
8,644 nM,CC(C)(C)OC(=O)NC1CCCN(C(=S)S)C1 (configuration not stated)
